{
  "source": "patent US20250352524A1",
  "about": "“PREVENTION OF METASTATIC OUTGROWTH USING TEAD INHIBITORS” (Georgetown University, priority 2024, published 2025)",
  "key": {"[1]": {"tested_on": "DCIS and DCIS-Δ4 mixed 3D spheres", "assay": "Invasion of DCIS and DCIS-Δ4 mixed 3D spheres in collagen:matrigel mix", "type": "cell-based, human", "protocol": "To determine iTEAD effect on lung immune microenvironment at steady state, naïve C57/BL6 mice were treated with iTEAD. […] In the absence of cancer cells in these naïve mice, no change in CD8+ T-cells was observed between treatment groups. […] On the cancer cell front, TEAD inhibition had no effect on proliferation yet reduced migration and 3D spheroid collective invasion of breast cancer cells in vitro."}, "[2]": {"tested_on": "peritoneal macrophages", "assay": "Gene expression and pathway analysis of peritoneal macrophages treated in vitro", "type": "cell-based, mouse", "excerpt": "To investigate whether the effect of iTEAD treatment on macrophages can enhance their crosstalk with T-cells in the lung microenvironment, peritoneal macrophages+/−iTEAD were first isolated and characterized as a model of resident macrophages for ex vivo experiments (FIG. 14, Panel A). It was observed that treatment with VT107 decreased gene expression of M2-like and fibrosis regulators, Aldh1a1 and Cc117 (Chen et al., 2020), as well as TEAD4 and its downstream target gene Ankrd1. […] The iTEAD pretreated peritoneal macrophages and untreated T-cells isolated from the spleen of tumor naïve mice (FIG. 14, Panel A) were then mixed for 5 hours before collecting the conditioned media for analysis. […] Next, these immune cell mixes were added to 4T1 spheres that were embedded into matrix. […] This effect was reversed by an IL12 neutralizing antibody. No change in cleaved caspase-3 in 4T1 cells in the presence of VT107-treated T-cells or macrophages alone, was detected at 24 hours (FIG. 14, Panels C and D). 4T1 cells were then plated and allowed to attach on electrode-coated arrays to monitor cancer cell viability before the addition of macrophages+/−iTEAD and T-cells. […] This reversal of T-cell cytotoxicity by IL12 antibodies was not observed in VT107-treated T-cells in the absence of macrophages (FIG. 15, Panel E) indicating a critical role for IL12 in the crosstalk between macrophages and T-cells.\nThe total RNA from tissue or cell lines was extracted using RNeasy Mini Kit (Qiagen, #74104) according to the manufacturer's instructions. Total RNA integrity was assessed with the Agilent 2100 Bioanalyzer. The library preparation and next-generation sequencing (NGS) were performed at Novogene Corporation Inc. (Sacramento, CA, USA). At least triplicate samples per experimental condition were analyzed, raw sequence reads (150 bp paired end, […] average reads/sample) were aligned to the human or mouse transcriptome using STAR, and aligned reads translated to expression counts via featurecounts, followed by a standard edgeR (RRID:SCR_012802) pipeline to identify DEGs under specific conditions. Ingenuity pathway analysis (IPA, RRID:SCR_008653) was undertaken using a list of all differentially expressed genes with a cutoff of p-value less than 0.05 to identify signaling pathways and upstream regulators."}, "[3]": {"tested_on": "Jurkat cells", "assay": "Real Time Cell Analysis, cytotoxicity of Jurkat cells towards 4T1 cells", "type": "cell-based, human", "conditions": "1 μM VT107 for 24 hours", "protocol": "The hippo pathway has been implicated in T-cell development and function (Du et al., 2014; Ueda et al., 2012). For example, YAP expression is essential for tumor immune suppression by Treg cells that attenuates CD8 T-cell immunity (Geng et al., 2017; Ni et al., 2018; Lebid et al., 2020). […] To investigate whether VT107 directly affected T-cells, T-cells treated with VT107 were co-cultured with 4T1 cells in 2D for 72 hours. […] To further confirm T-cell activation upon TEAD activity reduction, we used Jurkat cells, a CD4 positive human lymphoma cell line (Schneider et al., 1977). […] However, here we show the specific effect of TEAD reduction on granzyme gene expression and degranulation that result in the killing of cancer cells.\nCell analysis was done using E-plates from xCELLigence, (Agilent, #5469830001) according to the manufacturer's protocol. For cell cytotoxicity, cancer cells (10,000-25,000 cells per well) were seeded and allowed to attach for 1-2 hours prior to the addition of immune cells and/or drug treatments. For cell proliferation, cancer cells were seeded at 5,000-10,000 cells per well with incremental doses of drug treatments or DMSO as a vehicle control. Cell index was measured by changes in electric impedance at 15 min intervals. TEAD inhibitors were obtained from Vivace therapeutics. […]"}, "[4]": {"tested_on": "DCIS cells", "assay": "Real Time Cell Analysis, proliferation of DCIS cells", "type": "cell-based, human", "conditions": "VT107 at varying concentrations, cell index", "protocol": "To further examine the effect of TEAD inhibition on the myeloid compartment of the lung, a human breast cancer cell line MCFDCIS (DCIS) that metastasizes to the lungs when a small population of cells (DCISA4) expresses an isoform of the transcription coactivator amplified in breast cancer 1 (Sharif et al., 2021), was used. DCIS:DCISA4 cells were injected into the mammary fat pad of NOD/SCID mice. Mice were treated daily with VT107. Tumors were surgically removed at week 4 and lungs were monitored for metastases for another 4 weeks without receiving additional treatment (FIG. 13, Panel B). Mouse body weights were measured weekly throughout the course of treatment (FIG. 13, Panel C). […] All mice in the vehicle treated group developed lung metastases as previously reported (Sharif et al., 2021). […] RNA was extracted from lung tissues to further examine the host stroma affected by VT107. RNA sequencing reads from the lungs were aligned to the mouse transcriptome to shed light on the host tissue changes in response to treatment in the presence of seeded cancer cells. […]\nCell analysis was done using E-plates from xCELLigence, (Agilent, #5469830001) according to the manufacturer's protocol. […] Cell index was measured by changes in electric impedance at 15 min intervals. […]"}, "[5]": {"conditions": "1 μM VT107 for 24 hours, pathway analysis"}},
  "data": [
    {"substance": "VT107", "values": [
      {"measurement": "migration of breast cancer cells in vitro", "setting": "[1]", "result": "reduced"},
      {"measurement": "3D spheroid collective invasion", "setting": "[1]; vs control", "result": "reduced"},
      {"measurement": "cell cycle related pathways", "setting": "[2]; [5]", "result": "upregulated"},
      {"measurement": "disease-related chronic inflammation pathways", "setting": "[2]; [5]", "result": "downregulation"},
      {"measurement": "Pvalb gene expression", "setting": "[2]; 1 μM VT107 for 72 hours", "result": "top upregulated gene"},
      {"measurement": "gene expression of Aldh1a1, Cc117, TEAD4 and Ankrd1", "setting": "[2]; 1 μM VT107 for 72 hours", "result": "decreased"},
      {"measurement": "Jurkat cytotoxicity towards co-cultured 4T1 cells", "setting": "[3]", "result": "enhanced cytotoxicity"},
      {"measurement": "proliferation of DCIS / breast cancer cells in vitro", "setting": "[4]", "result": "no significant change"},
      {"measurement": "proliferation of DCIS / breast cancer cells in vitro", "setting": "[4]; listed as iTEAD", "result": "no effect"}
    ]}
  ]
}
